# Laboratory results: patent US20220348590A1, “CYCLOOXYGENASE-2 INHIBITORS AND USES THEREOF” (The Board Institute, Inc., priority 2019, published 2022)
# Like-named read-outs stand apart in the source and are kept apart here.
# Tests used:
# [1] = rat plasma protein binding (PPB) assay; format: in vitro ADME; details: average, read-out: Rat Plasma Protein Binding % Bound Avg (converted)
# Summary of the method: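 In vitro protein binding; fu determined. Matrices: mouse/rat/human plasma (PPB), mouse brain (BPB). Used to gauge NSB.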
# [2] = Mouse Plasma Protein Stability (% Remaining); format: in vitro ADME; details: average
# [3] = Rat Plasma Protein Stability (% Remaining); format: in vitro ADME; details: average
# [4] = molecular target: T1, human recombinant COX2 (hCOX2) (UniProt P35354); experiment: LCMS-based COX2 enzymatic inhibition assay (PGE2 quantification); format: biochemical; set-up: COX2 2 minutes pge2/pge2d4 area ratio Avg; other: 2 minutes; readout pge2/pge2d4 area ratio; average; COX2 2 minutes pge2/pge2d4 area ratio Avg; LLE; average LLE; COX2 2 minutes pge2 area (counts) Avg; readout pge2 area (counts); other: 2 min; "ovine COX2 (oCOX2), human recombinant COX2 (hCOX2)"; details: for COX2 2 minutes pge2/pge2d4 area ratio Avg. LLE / COX2 2 minutes pge2 area (counts) Avg. LLE / COX2 10 minutes pge2 area (counts) Avg. LLE / COX2 30 minutes pge2 area (counts) Avg. LLE: average LLE; for IC50: average
# T1 sequence (P35354 1-604): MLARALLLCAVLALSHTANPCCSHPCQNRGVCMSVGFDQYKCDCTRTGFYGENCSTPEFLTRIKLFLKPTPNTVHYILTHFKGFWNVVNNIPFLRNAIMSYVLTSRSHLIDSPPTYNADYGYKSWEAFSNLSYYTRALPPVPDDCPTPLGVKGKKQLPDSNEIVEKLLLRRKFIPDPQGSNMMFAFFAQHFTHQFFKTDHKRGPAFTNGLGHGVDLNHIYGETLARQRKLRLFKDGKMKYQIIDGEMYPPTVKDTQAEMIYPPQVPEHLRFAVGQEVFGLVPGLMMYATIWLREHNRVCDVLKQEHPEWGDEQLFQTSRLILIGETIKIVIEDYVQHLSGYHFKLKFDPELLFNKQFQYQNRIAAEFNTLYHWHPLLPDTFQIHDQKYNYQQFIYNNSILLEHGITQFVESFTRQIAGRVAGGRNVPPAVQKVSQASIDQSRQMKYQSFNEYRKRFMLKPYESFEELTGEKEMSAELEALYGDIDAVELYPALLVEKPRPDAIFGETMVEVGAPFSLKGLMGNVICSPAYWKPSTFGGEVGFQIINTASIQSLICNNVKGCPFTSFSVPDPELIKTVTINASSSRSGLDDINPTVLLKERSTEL
# Summary of the method: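 PGE2 formed from arachidonic acid (final 5 μM, 2 min) was measured by LC-MS-MS against DMSO controls. Enzyme (oCOX-1 0.1 μg or hCOX2 0.2 μg) with hematin/epinephrine cofactors at pH 8.0 was given 10 min at 37 °C with compound first. Twelve-point curves run three times gave IC50.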
# [5] = human plasma protein binding (PPB) assay; format: in vitro ADME; details: average, read-out: Human Plasma Protein Binding % Bound Avg (converted)
# Procedure: We have adapted a previously reported cyclooxygenase enzymatic assay utilizing LCMS quantification of PGE2 as the product of COX-1 and COX2 catalyzed conversion of arachidonic acid to evaluate the binding properties of newly synthesized ligands [Cao, 2011]. These optimized and miniaturized (384-well plates) LCMS-based COX-1 and COX2 enzymatic assays enabled us to quickly evaluate newly synthesized ligands for COX2 binding affinity and selectivity vs COX-1. Using a shorter ligand-enzyme incubation time in the LCMS assay (2 minutes vs 10 minutes) also permitted us to prioritize ligands with faster binding kinetics. Considering the relatively slow on-rate kinetics of known coxibs, due to their 3-step binding mechanism [Marnett, 2009], we believe that optimizing this critical parameter will be key to the successful development of a COX2 PET tracer. Using these enzymatic assays, we have evaluated>200 newly synthesized ligands against COX2 and >20 ligands against COX-1. Another critical property necessary for a good PET radiotracer is to have low non-specific binding (NSB) to increase the free fraction and maximize the signal to noise ratio. This property can be evaluated using in-vitro protein binding assays, and we have now evaluated>50 newly synthesized ligands in mouse, rat and human plasma protein binding (PPB) assays as well as >15 ligands in a mouse brain protein binding (BPB) assay.
# PBS Solubility (no DMSO) = format: physicochemical; details: aqueous buffer, thermodynamic from solid, average
# [6] = Human Microsome Stability; format: in vitro ADME; details: human microsomes
# [7] = 2 minutes, readout pge2/pge2d4 area ratio
# [8] = 2 minutes, readout pge2/pge2d4 area ratio, read-out: COX2 2 minutes pge2/pge2d4 area ratio Avg. IC50
# [9] = 2 minutes, readout pge2 area (counts)
# [10] = 2 minutes, readout pge2 area (counts), read-out: COX2 2 minutes pge2 area (counts) Avg. IC50
# [11] = 10 minutes, readout pge2 area (counts)
# [12] = 10 minutes, readout pge2 area (counts), read-out: COX2 10 minutes pge2 area (counts) Avg. IC50
# [13] = 30 minutes, readout pge2 area (counts)
# [14] = 30 minutes, readout pge2 area (counts), read-out: COX2 30 minutes pge2 area (counts) Avg. IC50
Compound,fraction unbound [1],Mouse Plasma Protein Stability % Remaining Avg [2] [%],Rat Plasma Protein Stability % Remaining Avg [3] [%],"COX2 2 minutes pge2/pge2d4 area ratio Avg. LLE [4, 7]","IC50 [4, 8] [nM]","COX2 2 minutes pge2 area (counts) Avg. LLE [4, 9]","IC50 [4, 10] [nM]",fraction unbound [5],solubility (PBS Solubility (no DMSO)) [µM],Human Microsome Stability % Remaining Avg [6] [%],"COX2 10 minutes pge2 area (counts) Avg. LLE [4, 11]","IC50 [4, 12] [nM]","COX2 30 minutes pge2 area (counts) Avg. LLE [4, 13]","IC50 [4, 14] [nM]"
COc1ccc(NCc2cccs2)nc1-c1ccc(S(C)(=O)=O)cc1 [Compound 17],0.047,102,100,4.653,9.62,4.644,9.92,0.022,1.3,,,,,
CS(=O)(=O)c1ccc(-c2cc(F)cc(NCc3ccoc3)n2)cc1 [Compound 34],0.025,,115,4.826,16.4,4.752,18.3,0.027,12,48,,,,
COc1ncc(NCc2ccoc2)nc1-c1ccc(S(C)(=O)=O)cc1 [Compound 44],0.044,105.7,104.6,5.722,19.6,5.725,20.1,,28,,,,,
CS(=O)(=O)c1ccc(-c2ccc(F)c(NCc3ccoc3)n2)cc1 [Compound 33],0.025,,128,4.757,16.4,4.796,15.1,0.029,0.64,40,,,,
CS(=O)(=O)c1ccc(-c2cncc(OCc3cccs3)n2)cc1 [Compound 19],0.015,92.8,91.1,5.643,10.2,5.681,9.01,0.015,5.8,,6.3861,1.5,,
CS(=O)(=O)c1ccc(-c2ccc(F)c(NCc3ccco3)n2)cc1 [Compound 15],0.02,,127,5.1257,8.91,5.098,9.62,0.022,4.5,45.5,,,,
COc1cc(NCc2cccs2)nc(-c2ccc(S(C)(=O)=O)cc2)c1 [Compound 50],,98.9,,4.261,22.8,4.341,20,,,,4.996,5,5.9869,0.416

# Results, then the compound that gave them:
fraction unbound [1],Mouse Plasma Protein Stability % Remaining Avg [2] [%],Rat Plasma Protein Stability % Remaining Avg [3] [%],"COX2 2 minutes pge2/pge2d4 area ratio Avg. LLE [4, 7]","IC50 [4, 8] [nM]","COX2 2 minutes pge2 area (counts) Avg. LLE [4, 9]","IC50 [4, 10] [nM]",fraction unbound [5],solubility (PBS Solubility (no DMSO)) [µM],Human Microsome Stability % Remaining Avg [6] [%],"COX2 10 minutes pge2 area (counts) Avg. LLE [4, 11]","IC50 [4, 12] [nM]","COX2 30 minutes pge2 area (counts) Avg. LLE [4, 13]","IC50 [4, 14] [nM]",Compound
0.087,106,102.8,,17.5,,18.2,0.091,27,17,,,,,CS(=O)(=O)c1ccc(-c2cccc(NCc3ccco3)n2)cc1 [Compound 36]
0.031,102,97.9,4.9079,9.12,4.932,8.71,0.049,10,24,,,,,CS(=O)(=O)c1ccc(-c2cccc(OCc3ccoc3)n2)cc1 [Compound 16]
,,,5.067,76,5.168,61.6,,,23.8,6.195,5.57,6.4321,2.74,CS(=O)(=O)c1ccc(-c2cncc(NCc3cccs3)n2)cc1 [Compound 98]
0.042,,100,4.818,10.9,4.716,13.9,0.026,18,36,,,,,Cc1occc1CNc1cccc(-c2ccc(S(C)(=O)=O)cc2)n1 [Compound 21]
0.046,,104,4.592,11.4,4.619,10.7,0.028,24,11,,,,,CS(=O)(=O)c1ccc(-c2cccc(NCc3ccc(F)o3)n2)cc1 [Compound 23]
